Values quoted from earlier work, collected in article PMC10920834, “Synthesis, anticancer activity, and molecular docking of half-sandwich iron(II) cyclopentadienyl complexes with maleimide and phosphine or phosphite ligands” (Scientific Reports, 2024).

How the values were obtained:
PBM cells = conditions: cited from earlier work; for IC50: studied previously, read-out: IC50 PBM cells (ruthenium analogues)
HL-60 cells = system: HL-60 cells; parameters: method as in PMID 26486993; conditions: studied previously; read-out: IC50 HL-60 cells (ruthenium analogues); cited from earlier work
[1] = system: doxorubicin-resistant (Colo320) cells; parameters: method as in PMID 37187089; conditions: cited from earlier work
[2] = system: doxorubicin-sensitive cells (Colo205); parameters: method as in PMID 37187089; conditions: cited from earlier work

Structure (SMILES) | cytotoxicity toward PBM cells of ruthenium analogues, in words (PBM cells; listed as 2b-Ru) | IC50 (PBM cells) | IC50 (HL-60 cells) | IC50 [1] | IC50 [2]
O=C1C=CC(=O)[N-]1.[C-]#[O+].[Ru+2].c1cc[cH-]c1.c1ccc(P(c2ccccc2)c2ccccc2)cc1 [ruthenium complex 2b, CpRu(CO)(PPh3) (η^1-N-maleimidato)] | cytotoxic | 8.48 µM | 35.6 µM |  | 
O=S(=O)([O-])C(F)(F)F.[C-]#[O+].[Fe+2].c1cc[cH-]c1.c1ccc(Cn2ccnc2)cc1.c1ccc(P(c2ccccc2)c2ccccc2)cc1 [[CpFe(CO)(PPh3) (1-benzylimidazole)](CF3SO3)] |  |  |  | 2.21 ± 0.26 µM | 1.26 ± 0.11 µM
CCOP(OCC)OCC.O=C1C=CC(=O)[N-]1.[C-]#[O+].[Ru+2].c1cc[cH-]c1 [ruthenium(II) complex 3a, CpRu(CO)(P(OEt)3)(η^1-N-maleimidato)] |  | > 250 µM | 12.2 µM |  | 
